Test results reported in patent publication US11077199B2, “Albumin binding peptide conjugates and methods thereof” (Massachusetts Institute of Technology, priority 2017, dated 2021).

What was measured:
[1] = test system: CD44hi H-2Db gp100 tetramer+ CD8+ T cells; experiment: Immunization with ABP-antigen constructs, tetramer staining of peripheral blood; format: in vivo, C57BL6/J mice; settings: for percentage CD44hi tetramer+ of total live CD8+ T cells: 5 nmol with 25 ug c-di-GMP adjuvant, prime day 0, boost day 14, peripheral blood day 21, mean response
Excerpt: To test whether these albumin-binding peptides could enhance vaccination, a model melanoma antigen called gp100 was utilized. Vaccination against gp100 has shown significant preclinical activity (van Stipdonk, M. J. B. et al. Design of agonistic altered peptides for the robust induction of CTL directed towards H-2Db in complex with the melanoma-associated epitope gp100. Cancer research 69, 7784-7792, doi:10.1158/0008-5472.CAN-09-1724 (2009)) and has also been used clinically (Schwartzentruber, D. J. et al. gp100 Peptide Vaccine and Interleukin-2 in Patients with Advanced Melanoma. New England Journal of Medicine 364, 2119-2127, doi:10.1056/NEJMoa1012863 (2011)). An altered peptide ligand form of gp100 called EGP (sequence
To test the immunogenicity of ABP-modified peptides, C57BL6/J mice (Jackson Laboratories) were immunized with 5 nmol either ABP-G4S-EGP, ABP-PEG2000-EGP, or unmodified EGP peptide. Vaccines were formulated with 25 ug c-di-GMP (Invivogen) for adjuvant in 100 uL total volume (with sterile saline as diluent). Mice were primed on day 0, boosted on day 14, and tetramer staining was performed on day 21 to assess T cell priming in peripheral blood. (FIG. 5). Briefly, blood was isolated retro-orbitally, subjected to lysis to remove red blood cells, and incubated with tetramer (H-2Db gp100, MBL) at room temperature for 30 minutes, followed by surface staining for CD8 and CD44. DAPI was included as a viability marker, and cells were run on the LSR Fortessa (BD Biosciences). Responses were quantified as the percentage CD44^hi tetramer+ of total live CD8+ T cells. […] (FIG. 6).

MHC (H2-Db) = target: T1, MHC (H2-Db) (Mus musculus, UniProt P01899); settings: H2-Db epitope; van Stipdonk et al. 2009; cited from earlier work
T1 sequence (P01899 25-362): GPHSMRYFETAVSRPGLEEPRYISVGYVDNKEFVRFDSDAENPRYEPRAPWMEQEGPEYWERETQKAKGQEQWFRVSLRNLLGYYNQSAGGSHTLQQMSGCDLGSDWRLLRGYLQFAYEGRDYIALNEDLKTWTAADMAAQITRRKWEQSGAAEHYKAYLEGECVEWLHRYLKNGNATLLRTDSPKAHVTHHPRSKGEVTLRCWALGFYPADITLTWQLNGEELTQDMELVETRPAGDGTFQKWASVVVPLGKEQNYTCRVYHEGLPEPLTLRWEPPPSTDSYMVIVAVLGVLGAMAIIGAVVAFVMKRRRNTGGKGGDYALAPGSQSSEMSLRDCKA
T1 sequence (P01887 21-119 partner): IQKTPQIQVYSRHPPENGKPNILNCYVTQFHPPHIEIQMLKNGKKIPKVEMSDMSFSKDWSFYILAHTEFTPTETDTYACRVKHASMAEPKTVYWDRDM

Row | Sequence | percentage CD44hi tetramer+ of total live CD8+ T cells [1] [%] | response compared with background in unimmunized mice ([1]; day 21 tetramer staining, background 0.82%) | affinity for MHC relative to native form (EGS) (MHC (H2-Db)) | fold higher response than unmodified peptide ([1]; CD44hi tetramer+ of live CD8+ T cells, day 21, relative to unmodified EGP peptide)
1 | AVGALEGPRNQDWLGVPRQL (Synthetic EGP long peptide) [unmodified EGP peptide, altered peptide ligand form of melanoma antigen gp100] | 1.45 | not statistically different from background | enhanced affinity for MHC over the native form | 
2 | DICLPRWGCLWGGGGSAVGALEGPRNQDWLGVPRQL [ABP-G4S-EGP] | 5.56 |  |  | approximately 4 fold
